# Reference: publication PMC6099110, “Valepotriates From the Roots and Rhizomes of Valeriana jatamansi Jones as Novel N-Type Calcium Channel Antagonists” (Frontiers in Pharmacology, 2018)
# System: T1, Cav2.2 N-type voltage-gated calcium channel
# T1 construct: gene CACNA1B
# Experiment: two-electrode voltage clamp of Cav2.[…] expressed in Xenopus oocytes, dose-response
# Assay type: cell-based
row,SMILES,EC50
1,"CC(=O)OCC1=CO[C@@H](OC(=O)CC(C)(C)OC(C)=O)[C@H]2C1=C[C@H](OC(=O)CC(C)C)[C@]2(O)COC(=O)CC(C)C [compound 3, valtrate hydrin B8]",4.8 µM
2,"CC(=O)OCC1=CO[C@@H](OC(=O)CC(C)C)[C@H]2C1=C[C@H](OC(=O)CC(C)C)[C@]2(O)COC(=O)C(OC(=O)CC(C)C)C(C)C (stereo partly drawn) [compound 1, (1S, 7S, 8R, 9S)-11-acetoxy-10-[a-(isovaleroxy)isovaleroxy]-1,7-diisovaleroxyvaltrate hydrin]",3.3 µM
